Measurements published in US20230340012A1, “NATURAL AND SYNTHETIC COMPOUNDS FOR TREATING CANCER AND OTHER DISEASES” (PACIFIC ARROW LIMITED, priority 2009, published 2023).

Tested on: cancer cells
Test: MTT cytotoxic assay of esterification products (Cytotoxicity activity)
Assay type: cell-based, human
Settings: MTT cytotoxic assay, isolated esterification products of E4A
From the text: The peaks, fractions and compounds are selected according to the activities of times studies and the changes of peaks. Selecting the HPLC fractions for isolation is according to the cytotoxic activity of the reaction product obtained at a specific time. The compounds having strong to weak activities are selected and isolated. Selecting the HPLC fractions for isolation may be according to the cytotoxic activity of times studies and the change of peaks. The anti-cancer activities are the MTT studies of bone (U2OS), lung (H460), bladder (HTB-9), ovary (ES2), colon (HCT116), pancreas (Capan), ovary(OVCAR3), prostate (DU145), skin (SK-Mel-5), mouth (KB), kidney (A498), breast (MCF-7), liver (HepG2), brain (T98G), leukemia (K562), cervix (HeLa).
Esterification of compound (A), (B), (C), (D1), (D2), (E), (F), (G), (H1), (H2), E4A, E4A2Y, (P1), P(2), terpene, isoprene, triterpenes, hydroxylated triterpenes, with acyl halide, wherein the halide comprise chloride, bromide, fluoride and iodide, wherein the acyl halide comprise acyl chloride, wherein acyl chloride comprise tigloyl chloride, angeloyl chloride, acetyl chloride, crotonoyl chloride, 3,3-Dimethylacryloyl chloride, senecioyl chloride, cinnamoyl chloride, pentenoyl chloride, hexanoyl chloride, benzoyl chloride, ethylbutyryl chloride, propionyl chloride, 2-propenoyl chloride, isobutyryl chloride, butyryl chloride, (2E)-2-pentenoyl chloride, 4-Pentenoyl chloride, 5-hexenoyl chloride, heptanoyl chloride, octanoyl chloride, nonanoyl chloride, decanoyl chloride, Lauroyl chloride, myristoyl chloride, oleoyl chloride. The compounds vary in composition when the time or temperature of the reaction is changed. The peaks, fractions and compounds are selected according to the activities of times studies and the changes of peaks. The compounds having strong to weak activities are selected and isolated. The anti-cancer activities (Cytotoxic Assay) are the MTT studies of bone (U2OS), lung (H460), bladder(HTB-9), ovary (ES2), colon (HCT116), pancreas (Capan), ovary(OVCAR3), prostate (DU145), skin (SK-Mel-5), mouth (KB), kidney (A498), breast (MCF-7), liver (HepG2), brain (T98G), leukemia (K562), cervix (HeLa). The active esterification products are purified with HPLC. The reaction product of mixtures and individual compounds are tested with MTT Cytotoxic Assay. Details of method are in Experiment 3 of the present application. A second esterification of compound can be selected from the above experiment results to produce new active compounds. A partial esterification compound is selected from the above experiments to perform a second or repeated with a third esterification with different acyl chloride in order to produce new active compounds with the experiments in the present application.
Method: 40 mg of triterpene core (fraction IV) was dissolved in 1 ml pyridine in a 50 ml tube. Reaction is started by adding 0.2 ml of acyl chloride (Tigloyl chloride, angeloyl chloride, Acetyl chloride, Crotonoyl chloride, 3,3-Dimethylacryloyl chloride(senecioyl chloride), Cinnamoyl chloride, Pentenoyl chloride, Hexanoyl chloride, benzoyl chloride or Ethylbutyryl chloride). The mixture is stirred for 5 sec, 1 min, 2 min, 5 min, 10 min, 30 min, 1 hr, 2 hr, 18 hr, 2 days or 3 days at 0° C., 25° C. or 75° C. temperature. At the end of reaction, 5 ml of 2N HCl or 1 M NaHCO3 is added to the reaction mixture. The solution is then extracted 3 times with 10 ml of ethyl acetate which is then evaporated under vacuum and at 45C and lyophilization. The reaction product is dissolved in 80% acetonitrile - 0.005% Trifluoroacetic acid or DMSO; and was separated with HPLC. Selecting the HPLC fractions for isolation is according to the cytotoxic activity of the reaction product obtained at a specific reaction time. The active esterification products are purified with HPLC. The reaction product of mixtures and individual compounds are tested with MTT cytotoxic assay. Structures are determined with NMR. […]

| SMILES | Cytotoxicity activity |
| --- | --- |
| CC(C)=CC(=O)OCC1(C)C(O)CCC2(C)C1CCC1(C)C2CC=C2C3CC(C)(C)C(O)C(O)C3(COC(=O)C=C(C)C)C(OC(=O)C=C(C)C)CC21C (stereo not shown) [Compound B7] | moderate |
| CC(C)=CC(=O)OCC1(C)C(O)CCC2(C)C1CCC1(C)C2CC=C2C3CC(C)(C)C(OC(=O)C=C(C)C)C(OC(=O)C=C(C)C)C3(COC(=O)C=C(C)C)C(O)CC21C (stereo not shown) [Compound B8] | weak |
| CC(C)=CC(=O)OCC1(C)C(OC(=O)C=C(C)C)CCC2(C)C1CCC1(C)C2CC=C2C3CC(C)(C)C(O)C(OC(=O)C=C(C)C)C3(COC(=O)C=C(C)C)C(O)CC21C (stereo not shown) [Compound B9] | weak |
| CC(C)=CC(=O)OCC1(C)C(OC(=O)C=C(C)C)CCC2(C)C1CCC1(C)C2CC=C2C3CC(C)(C)C(O)C(O)C3(COC(=O)C=C(C)C)C(OC(=O)C=C(C)C)CC21C (stereo not shown) [Compound B10] | weak |
| CC(C)=CC(=O)OCC1(C)C(OC(=O)C=C(C)C)CCC2(C)C1CCC1(C)C2CC=C2C3CC(C)(C)C(OC(=O)C=C(C)C)C(O)C3(COC(=O)C=C(C)C)C(O)CC21C (stereo not shown) [Compound B11] | weak |
| CC(C)=CC(=O)OCC1(C)C(O)CCC2(C)C1CCC1(C)C2CC=C2C3CC(C)(C)C(O)C(OC(=O)C=C(C)C)C3(COC(=O)C=C(C)C)C(OC(=O)C=C(C)C)CC21C (stereo not shown) [Compound B12] | weak |
| CC(C)=CC(=O)OCC1(C)C(O)CCC2(C)C1CCC1(C)C2CC=C2C3CC(C)(C)C(OC(=O)C=C(C)C)C(O)C3(COC(=O)C=C(C)C)C(OC(=O)C=C(C)C)CC21C (stereo not shown) [Compound B13] | weak |
| CC(C)=CC(=O)OCC1(C)C(OC(=O)C=C(C)C)CCC2(C)C1CCC1(C)C2CC=C2C3CC(C)(C)C(O)C(OC(=O)C=C(C)C)C3(COC(=O)C=C(C)C)C(O)CC21C (stereo not shown) [Compound B14] | weak |
| CC(C)=CC(=O)OCC1(C)C(OC(=O)C=C(C)C)CCC2(C)C1CCC1(C)C2CC=C2C3CC(C)(C)C(OC(=O)C=C(C)C)C(OC(=O)C=C(C)C)C3(COC(=O)C=C(C)C)C(O)CC21C (stereo not shown) [Compound B15] | weak |
| CC(C)=CC(=O)OCC1(C)C(O)CCC2(C)C1CCC1(C)C2CC=C2C3CC(C)(C)C(OC(=O)C=C(C)C)C(OC(=O)C=C(C)C)C3(COC(=O)C=C(C)C)C(OC(=O)C=C(C)C)CC21C (stereo not shown) [Compound B16] | weak |
| CC(C)=CC(=O)OCC1(C)C(OC(=O)C=C(C)C)CCC2(C)C1CCC1(C)C2CC=C2C3CC(C)(C)C(OC(=O)C=C(C)C)C(O)C3(COC(=O)C=C(C)C)C(OC(=O)C=C(C)C)CC21C (stereo not shown) [Compound B17] | weak |
| CC(C)=CC(=O)OCC1(C)C(OC(=O)C=C(C)C)CCC2(C)C1CCC1(C)C2CC=C2C3CC(C)(C)C(O)C(OC(=O)C=C(C)C)C3(COC(=O)C=C(C)C)C(OC(=O)C=C(C)C)CC21C (stereo not shown) [Compound B18] | weak |
| CC(C)=CC(=O)OCC1(C)C(OC(=O)C=C(C)C)CCC2(C)C1CCC1(C)C2CC=C2C3CC(C)(C)C(OC(=O)C=C(C)C)C(OC(=O)C=C(C)C)C3(COC(=O)C=C(C)C)C(OC(=O)C=C(C)C)CC21C (stereo not shown) [Compound B19] | none |
| CC(C)=CC(=O)OCC12C(O)CC3(C)C(=CCC4C5(C)CCC(O)C(C)(CO)C5CCC43C)C1CC(C)(C)C(OC(=O)C=C(C)C)C2OC(=O)C=C(C)C (stereo not shown) [Compound B20] | moderate |
| CC(C)=CC(=O)OCC1(C)C(O)CCC2(C)C1CCC1(C)C2CC=C2C3CC(C)(C)C(OC(=O)C=C(C)C)C(OC(=O)C=C(C)C)C3(CO)C(O)CC21C (stereo not shown) [Compound B21] | moderate |
| CC(C)=CC(=O)OC1C(OC(=O)C=C(C)C)C2(CO)C(OC(=O)C=C(C)C)CC3(C)C(=CCC4C5(C)CCC(O)C(C)(CO)C5CCC43C)C2CC1(C)C (stereo not shown) [Compound B22] | moderate |
| CC(C)=CC(=O)OC1C(OC(=O)C=C(C)C)C2(CO)C(O)CC3(C)C(=CCC4C5(C)CCC(OC(=O)C=C(C)C)C(C)(CO)C5CCC43C)C2CC1(C)C (stereo not shown) [Compound B23] | moderate |

| SMILES | Cytotoxicity activity |
| --- | --- |
| CC(C)=CC(=O)OC1C(OC(=O)C=C(C)C)C2(CO)C(O)CC3(C)C(=CCC4C5(C)CCC(O)C(C)(CO)C5CCC43C)C2CC1(C)C (stereo not shown) [Compound B24] | moderate |
| CC(C)=CC(=O)OCC12C(O)CC3(C)C(=CCC4C5(C)CCC(O)C(C)(CO)C5CCC43C)C1CC(C)(C)C(OC(=O)C=C(C)C)C2O (stereo not shown) [Compound B25] | moderate |
| CC(C)=CC(=O)OCC12C(O)CC3(C)C(=CCC4C5(C)CCC(O)C(C)(CO)C5CCC43C)C1CC(C)(C)C(O)C2OC(=O)C=C(C)C (stereo not shown) [Compound B26] | moderate |
| CC(C)=CC(=O)OCC12C(O)CC3(C)C(=CCC4C5(C)CCC(OC(=O)C=C(C)C)C(C)(CO)C5CCC43C)C1CC(C)(C)C(O)C2O (stereo not shown) [Compound B27] | moderate |
| CC(C)=CC(=O)OCC12C(OC(=O)C=C(C)C)CC3(C)C(=CCC4C5(C)CCC(O)C(C)(CO)C5CCC43C)C1CC(C)(C)C(O)C2O (stereo not shown) [Compound B28] | moderate |
| CC(C)=CC(=O)OCC1(C)C(O)CCC2(C)C1CCC1(C)C2CC=C2C3CC(C)(C)C(OC(=O)C=C(C)C)C(O)C3(CO)C(O)CC21C (stereo not shown) [Compound B29] | moderate |
| CC(C)=CC(=O)OCC1(C)C(O)CCC2(C)C1CCC1(C)C2CC=C2C3CC(C)(C)C(O)C(OC(=O)C=C(C)C)C3(CO)C(O)CC21C (stereo not shown) [Compound B30] | moderate |
| CC(C)=CC(=O)OCC1(C)C(OC(=O)C=C(C)C)CCC2(C)C1CCC1(C)C2CC=C2C3CC(C)(C)C(O)C(O)C3(CO)C(O)CC21C (stereo not shown) [Compound B31] | moderate |
| CC(C)=CC(=O)OCC1(C)C(O)CCC2(C)C1CCC1(C)C2CC=C2C3CC(C)(C)C(O)C(O)C3(CO)C(OC(=O)C=C(C)C)CC21C (stereo not shown) [Compound B32] | moderate |
| C=CCCC(=O)OCC1(C)C(O)CCC2(C)C1CCC1(C)C2CC=C2C3CC(C)(C)C(O)C(O)C3(CO)C(O)CC21C (stereo not shown) [Compound C1] | moderate |
| C=CCCC(=O)OCC12C(O)CC3(C)C(=CCC4C5(C)CCC(O)C(C)(CO)C5CCC43C)C1CC(C)(C)C(O)C2O (stereo not shown) [Compound C2] | moderate |
| C=CCCC(=O)OCC1(C)C(O)CCC2(C)C1CCC1(C)C2CC=C2C3CC(C)(C)C(O)C(O)C3(COC(=O)CCC=C)C(O)CC21C (stereo not shown) [Compound C3] | strong |
| C=CCCC(=O)OCC1(C)C(O)CCC2(C)C1CCC1(C)C2CC=C2C3CC(C)(C)C(OC(=O)CCC=C)C(O)C3(COC(=O)CCC=C)C(O)CC21C (stereo not shown) [Compound C4] | moderate |
| C=CCCC(=O)OCC1(C)C(O)CCC2(C)C1CCC1(C)C2CC=C2C3CC(C)(C)C(O)C(OC(=O)CCC=C)C3(COC(=O)CCC=C)C(O)CC21C (stereo not shown) [Compound C5] | moderate |
| C=CCCC(=O)OCC1(C)C(OC(=O)CCC=C)CCC2(C)C1CCC1(C)C2CC=C2C3CC(C)(C)C(O)C(O)C3(COC(=O)CCC=C)C(O)CC21C (stereo not shown) [Compound C6] | moderate |
| C=CCCC(=O)OCC1(C)C(O)CCC2(C)C1CCC1(C)C2CC=C2C3CC(C)(C)C(O)C(O)C3(COC(=O)CCC=C)C(OC(=O)CCC=C)CC21C (stereo not shown) [Compound C7] | moderate |
| C=CCCC(=O)OCC1(C)C(O)CCC2(C)C1CCC1(C)C2CC=C2C3CC(C)(C)C(OC(=O)CCC=C)C(OC(=O)CCC=C)C3(COC(=O)CCC=C)C(O)CC21C (stereo not shown) [Compound C8] | weak |
